Where two headings read alike, the source gives them in different places.
Experiments:
PCNA [1] = details: in vitro; ref [18]; cited from earlier work
Source text: CAF-1 is composed of three subunits, conserved from yeast to human. In humans, mice, and Xenopus, the three subunits of CAF-1 are p150 (CHAF1A), p60 (CHAF1B), and RbAp48 (RBBP4). p150 contains two regions that bind PCNA. The first is a motif located within the N-terminal domain of p150 that we previously referred to as the PCNA binding domain (PBD) (Figure 1A). […] I ... || Similarly, the CAF-1 PIP box sequence of Msh3, which is a part of the DNA mismatch repair machinery, is 19-[…]-41 and in accordance with the canonical sequence, the first PIP box residue corresponds to a glutamine, whereas in contrast, in the PIP box of CAF-1 this is replaced by a lysine at this position, thus making the binding mode of CAF-1 p150 non-canonical and unique in the case of human CAF-1 sequence 442-[…]-449 and mouse CAF-1 sequence 421-[…]-428. Previous research from our lab has also shown that substitution of the CAF-1 p150 lysine by a glutamine to ...

[2] = tested on: replication-coupled chromatin assembly; details: ref [18], cited from earlier work
Source text: CAF-1 is composed of three subunits, conserved from yeast to human. In humans, mice, and Xenopus, the three subunits of CAF-1 are p150 (CHAF1A), p60 (CHAF1B), and RbAp48 (RBBP4). p150 contains two regions that bind PCNA. The first is a motif located within the N-terminal domain of p150 that we previously referred to as the PCNA binding domain (PBD) (Figure 1A). […] In order to probe this further, we determined the preliminary model of the structure of CAF-1 p150 PIP bound to PCNA based on a molecular replacement solution that could not be refined further. We report here that the CAF-1 PIP binds to PCNA in an unprecedented manner.

PCNA [3] = assay: NMR 1H-15N BEST HSQC of 15N-p150L with PCNA; assay type: binding, human; details: 50 μM p150L, 400 μM PCNA monomer, 10 mM sodium phosphate pH 7.2, 10 mM NaCl, 293K
Method: NMR experiments were carried out on a 600 MHz Bruker Avance III spectrometer equipped with a 5 mm QCIP cryoprobe with Z gradients. All experiments were carried out at 293K. Two-dimensional ^1H-^15N BEST HSQC [60] experiments were carried out using the sequences downloaded from the NMRlib suite of pulse sequences. Selective shaped pulses were used to excite a ^1H sweep width of 4.5 ppm, centered at 8.75 ppm, with a recycle delay of 0.2 s. ^1H and ^15N sweep widths were set to 8417.509 Hz (14 ppm) and 1920.466 Hz (31.6 ppm) respectively, typically 240 t1 increments were acquired. NMR samples were prepared in 10 mM sodium phosphate buffer, pH 7.2, 10 mM NaCl, and 90% H2O/10% D2O. Uniformly ^15N labelled CAF-1 p150L and unlabeled PCNA were prepared in identical buffers and added together from stock samples. Final sample concentrations were at 50 μM for CAF-1 p150L and 400 μM PCNA monomer. NMR spectra were processed with NMRpipe, a multidimensional spectral system based on UNIX pipes.

DNA = assay: Co-purification with nucleic acid (DNA binding); details: purification of p150L; high salt washes combined with benzonase required to remove nucleic acid
Source text: An unusually long α-helix (119 amino acids) is predicted to end abruptly in the PIP RFF residues. The CAF-1 p150 PIP is surrounded by a red rectangle. To address this surprising prediction, CAF-1 p150 fragments that contained the predicted long α-helix including the PIP were expressed in E. coli, purified, and their biochemical and biophysical properties were characterized. This fragment of human p150 (Figure 5, residues 342–474) was expressed as a His-tagged fusion protein, hereafter referred to as CAF-1 p150L. […] Further treatment with benzonase and three sequential 1 M NaCl washes were required to remove the contamination.
S2. Expression and purification of p150L in Escherichia coli
A DNA fragment encoding human p150 residues 342-475 was cloned into the pET28a vector (kanamycin resistant) in-frame with a C-terminal 6X-histidine tag. For p150L ex-pression, this plasmid was transformed into Escherichia coli BL21(DE3) RIL cells (Strata-gene). Single colonies were inoculated and grown overnight to saturation at 37°C in 2X YT medium containing 50 µg/ml kanamycin. The next day, cells were diluted and grown to mid-exponential phase (A600nm = 0.6 - 0.8) at 37°C and protein expression was induced at 20°C with 0.5 mM isopropyl-β-D-thiogalactopyranoside (IPTG) for 16 h. […]

PCNA [4] = assay: Intrinsic tryptophan fluorescence quenching of PCNA by p150L; assay type: binding, human; details: 5 µM PCNA monomer + 20 µM p150L, excitation 280 nm, 10 mM sodium phosphate pH 7.2, 10 mM NaCl, 0.1 mM TCEP, room temperature
Method: Fluorescence experiments were performed on an Agilent Cary Eclipse fluorimeter at room temperature. Buffer conditions were identical for all protein components (10 mM sodium phosphate, pH 7.2, 10 mM NaCl, 0.1 mM TCEP). Samples were excited at A280nm with a 5 nm bandwidth and the emission spectra between 295 nm and 420 nm were collected. Measurements were made for 5 μM PCNA monomer (1 tryptophan residue), 20 μM CAF-1 p150L (no tryptophan and tyrosine residues), and a mixture containing 5 μM PCNA monomer and 20 μM CAF-1 p150L. Both samples were extensively dialyzed against the same buffer and prepared from stock samples to ensure identical conditions.

For KAEITRFF [PIP of p150], the “binding to PCNA” value (PCNA [1]) is given as “shows weaker affinity for PCNA”, the “role or effect in chromatin assembly” value ([2]; listed as CAF-1 PIP) is given as “preferentially inhibit nucleosome assembly over DNA synthesis” and the “role or effect in chromatin assembly” value [2] is given as “essential for chromatin assembly”.

With “CAF-1 p150L: fragment of human p150 (residues 342–474) expressed as a His-tagged fusion protein” the “NMR signal changes on mixing with PCNA” value (PCNA [3]) was “some of the well-resolved peaks corresponding to CAF-1 p150L disappeared or were significantly shifted”, the “NMR signal changes on mixing with PCNA” value (PCNA [3]; listed as p150L) was “most of the p150L spectrum disappears” and the “DNA / nucleic acid binding” value (DNA) was “co-purified with nucleic acid contamination”. For the same substance, the “quenching of PCNA tryptophan fluorescence / binding” value (PCNA [4]) was “quenched a small portion of the tryptophan signal derived from PCNA” and the “quenching of PCNA tryptophan fluorescence / binding” value (PCNA [4]; listed as p150L) was “weak binding”.
